Values joined by “and” are separate entries in the source; they are usually repeats but may differ in a detail not shown here. Equal entries are not always repeated.
- melting point: ~ 196 °C and 198 °C
SMILES: COc1cc(N2CCN(C3CCN(c4ccc(F)c5cccnc45)CC3)CC2)c2ncccc2c1 (hydrate or solvate) [Form A, 6-methoxy-8-[4-(1-(5-fluoro)-quinolin-8-yl-piperidin-4-yl)-piperazin-1-yl]-quinoline]

Source: US20080119481A1, “Crystalline forms of 6-methoxy-8-[4-(1-(5-fluoro)-quinolin-8-yl-piperidin-4-yl)-piperazin-1-yl]-quinoline” (Wyeth, priority 2006, published 2008)
